Data published in patent publication US10570168B2, “2′ and/or 5′ amino-acid ester phosphoramidate 3′-deoxy adenosine derivatives as anti- cancer compounds” (NuCana plc, priority 2014, dated 2020).
Where two headings read alike, the source gives them in different places.

Key:
Format in all cases: cell-based
K562 [1] = assay: CellTiterGlo viability assay, initial screening; settings: Homo sapiens, read-out: IC50 (relative IC50)
Description: (§1) In vitro viability assays were performed to assess the effects of compounds on cell viability in 7 selected cell lines over 72 hr using the CellTiterGlo (CTG, Promega-G7573) assay. The tests were performed in duplicates with treatment of compounds at 9 points, 3.16 folds titration in 96 well plates over ˜72 hr. The compound starting concentrations were […]. Cell viability assay using CellTiterGlo in 96-well plate were performed. The compound treatment was 72 hrs, under standard growth conditions, and in duplicate. Compounds were dissolved to 40 mM with thawed […]. Compounds were serially diluted at 3.16 fold in thawed DMSO, and warmed to 37° C. before being dissolved in media (2 μl+200 μl). After compounds were dissolved in media (media was also warmed to 37° C.). Media containing compounds were warmed to 37° C. in incubator and then compounds in media were added to cell plates (50 μl+50 μl), in duplicates. The compounds final concentrations were from […] to 19.9 nM. All compound solubilities were checked and recorded again, then the plates were transferred to CO2 tissue culture incubator immediately and incubated for 3 days. DMSO final concentration is 0.5%.

CCRF-CEM = assay: CellTiterGlo viability assay, initial screening; settings: Homo sapiens, read-out: IC50 (relative IC50)
Description: as §1

HL-60 = assay: CellTiterGlo viability assay, initial screening; settings: Homo sapiens, read-out: IC50 (relative IC50)
Description: as §1

MCF-7 = assay: CellTiterGlo viability assay, initial screening; settings: Homo sapiens, read-out: IC50 (relative IC50)
Description: as §1

KG-1 [2] = assay: CellTiterGlo viability assay, initial screening; settings: Homo sapiens, read-out: IC50 (relative IC50)
Description: as §1

HepG2 = assay: CellTiterGlo viability assay, initial screening; settings: Homo sapiens, read-out: IC50 (relative IC50)
Description: as §1

MOLT-4 [3] = assay: CellTiterGlo viability assay, initial screening; settings: Homo sapiens, read-out: IC50 (relative IC50)
Description: as §1

RL = assay: Solid tumour and haematological malignancy assay (CellTiterGlo); settings: Homo sapiens; for IC50: read-out: IC50 (absolute IC50); for Emax: read-out: MI %
Description: (§2) In vitro viability assay were performed to assess the effects of compounds on cell viability in selected cell lines over 72 hr using the CellTiterGlo (CTG, Promega-G7573) assay. The tests were performed in duplicates with treatment of compounds at 9 points, 3.16 folds titration in 96 well plates over ˜72 hr. The compound starting concentrations were 198 mM. Cell viability assay using CellTiterGlo in 96-well plate were performed. Compound treatment 72 hrs, standard growth conditions, duplicates. Compounds were dissolved to 40 mM with thawed […]. Compounds were serially diluted at 3.16 fold in thawed DMSO, and warmed to 37° C. before being dissolved in media (20 μl+200 μl). After compounds were dissolved in media, media containing compounds were warmed to 37° C. in incubator and then compounds in media were added to cell plates ([…]) in duplicates. The compounds' final concentrations were from 198M to 19.9 nM. All compound solubilities were checked and recorded again, then the plates were transferred to CO2 tissue culture incubator immediately and incubated for 3 days. DMSO final concentration is 0.5%.

NCI-H929 = assay: as above; settings: Homo sapiens; for IC50: read-out: IC50 (absolute IC50); for Emax: read-out: MI %
Description: as §2

MOLT-4 [4] = assay: as above; settings: Homo sapiens; for IC50: read-out: IC50 (absolute IC50); for Emax: read-out: MI %
Description: as §2

K562 [5] = assay: as above; settings: Homo sapiens; for IC50: read-out: IC50 (absolute IC50); for Emax: read-out: MI %
Description: as §2, with “The tests were performed in duplicates with treatment of compounds at 9 points, 3.16 folds titration in 96 well plates over ˜72 hr. The compound starting concentrations were 198 mM.” left out, “Compounds were serially diluted at 3.16 fold in thawed DMSO, and warmed to 37° C. before being dissolved in media (20 μl+200 μl).” left out, “The compounds' final concentrations were from 198M to 19.9 nM.” left out

CCRFCEM = assay: as above; settings: Homo sapiens, CCRF-CEM; for IC50: read-out: IC50 (absolute IC50); for Emax: read-out: MI %
Description: as §2, with “The tests were performed in duplicates with treatment of compounds at 9 points, 3.16 folds titration in 96 well plates over ˜72 hr. The compound starting concentrations were 198 mM.” left out, “Compounds were serially diluted at 3.16 fold in thawed DMSO, and warmed to 37° C. before being dissolved in media (20 μl+200 μl).” left out, “The compounds' final concentrations were from 198M to 19.9 nM.” left out

HT29 = assay: as above; settings: Homo sapiens; for IC50: read-out: IC50 (absolute IC50); for Emax: read-out: MI %
Description: as §2, with “The tests were performed in duplicates with treatment of compounds at 9 points, 3.16 folds titration in 96 well plates over ˜72 hr. The compound starting concentrations were 198 mM.” left out, “Compounds were serially diluted at 3.16 fold in thawed DMSO, and warmed to 37° C. before being dissolved in media (20 μl+200 μl).” left out, “The compounds' final concentrations were from 198M to 19.9 nM.” left out

MCF7 = assay: as above; settings: Homo sapiens; for IC50: read-out: IC50 (absolute IC50); for Emax: read-out: MI %
Description: as §2, with “The tests were performed in duplicates with treatment of compounds at 9 points, 3.16 folds titration in 96 well plates over ˜72 hr. The compound starting concentrations were 198 mM.” left out, “Compounds were serially diluted at 3.16 fold in thawed DMSO, and warmed to 37° C. before being dissolved in media (20 μl+200 μl).” left out, “The compounds' final concentrations were from 198M to 19.9 nM.” left out

KG-1 [6] = assay: as above; settings: Homo sapiens; for IC50: read-out: IC50 (absolute IC50); for Emax: read-out: MI %
Description: as §2, with “The tests were performed in duplicates with treatment of compounds at 9 points, 3.16 folds titration in 96 well plates over ˜72 hr. The compound starting concentrations were 198 mM.” left out, “Compounds were serially diluted at 3.16 fold in thawed DMSO, and warmed to 37° C. before being dissolved in media (20 μl+200 μl).” left out, “The compounds' final concentrations were from 198M to 19.9 nM.” left out

Compound | IC50 (K562 [1]; K562, 72 h) | IC50 (CCRF-CEM; 72 h) | IC50 (HL-60; HL-60, 72 h) | IC50 (MCF-7; MCF7, 72 h) | IC50 (KG-1 [2]; KG-1, 72 h) | IC50 (HepG2; HepG2, 72 h) | IC50 (MOLT-4 [3]; MOLT-4, 72 h) | IC50 (RL; 72 h) | IC50 (NCI-H929; NCI-H929, 72 h) | IC50 (MOLT-4 [4]; MOLT-4, 72 h) | IC50 (K562 [5]; K562, 72 h) | IC50 (CCRFCEM; 72 h) | IC50 (HT29; HT-29, 72 h) | IC50 (MCF7; MCF7, 72 h) | IC50 (KG-1 [6]; KG-1, 72 h) | also measured
C[C@H](NP(=O)(N[C@@H](C)C(=O)OCc1ccccc1)OC[C@@H]1CC(O)[C@H](n2cnc3c(N)ncnc32)O1)C(=O)OCc1ccccc1 (stereo in doubt) [Compound J, Benzyl 2-[({[5-(6-amino-9H-purin-9-yl)-4-hydroxyoxolan-2-yl]methoxy}({[1-(benzyloxy)-1-oxopropan-2-yl]amino})phosphoryl)amino]propanoate] |  |  |  |  |  |  |  |  |  |  |  |  |  |  |  | IC50 (K562 [1]; K562, 72 hr): 15 to 100 µM; IC50 (CCRF-CEM; 72 hr): 15 to 100 µM; IC50 (HL-60; HL-60, 72 hr): 15 to 100 µM; IC50 (MCF-7; MCF7, MCF-7, 72 hr): 15 to 100 µM; IC50 (KG-1 [2]; KG-1, 72 hr): 15 to 100 µM; IC50 (HepG2; HepG2, 72 hr): 15 to 100 µM; IC50 (MOLT-4 [3]; MOLT-4, 72 hr): 0.1 to 5 µM
COc1nc(N)c2ncn([C@@H]3O[C@H](CO)C[C@H]3O)c2n1 [2-OMe-Cordycepin, 3′-deoxy-2-methoxyadenosine, reference compound] |  |  |  |  |  |  |  |  |  |  |  |  |  |  |  | IC50 (RL; 72 hr): > 100 µM; Emax (RL; 72 hr): 0%; IC50 (NCI-H929; NCI-H929, 72 hr): > 100 µM; Emax (NCI-H929; NCI-H929, 72 hr): 51%; IC50 (MOLT-4 [4]; MOLT-4, 72 hr): > 100 µM; Emax (MOLT-4 [4]; MOLT-4, 72 hr): 1%; IC50 (K562 [5]; K562, 72 hr): > 100 µM; Emax (K562 [5]; K562, 72 hr): 40%; IC50 (CCRFCEM; CCRFCEM, 72 hr): > 100 µM; Emax (CCRFCEM; CCRFCEM, 72 hr): -4%; IC50 (HT29; HT-29, HT29, 72 hr): > 100 µM; Emax (HT29; HT-29, HT29, 72 hr): 19%; IC50 (MCF7; MCF7, 72 hr): > 100 µM; Emax (MCF7; MCF7, 72 hr): 8%; IC50 (KG-1 [6]; KG-1, 72 hr): > 100 µM; Emax (KG-1 [6]; KG-1, 72 hr): 1%
C[C@H](NP(=O)(Oc1cccc2ccccc12)O[C@@H]1C[C@@H](CO)O[C@H]1n1cnc2c(N)ncnc21)C(=O)OCc1ccccc1 (stereo partly drawn) [Compound I, (2S)-benzyl 2-(((((2R,3R,5S)-2-(6-amino-9H-purin-9-yl)-5-(hydroxymethyl)tetrahydro-furan-3-yl)oxy)(naphthalen-1-yloxy)phosphoryl)amino)propanoate] | 15 to 100 µM | 15 to 100 µM | 15 to 100 µM | 5 to 15 µM | 15 to 100 µM | 15 to 100 µM | 15 to 100 µM |  |  |  |  |  |  |  |  | 
CCCCCOC(=O)[C@H](CC(C)C)NP(=O)(OC[C@@H]1C[C@H](O)[C@H](n2cnc3c(N)nc(OC)nc32)O1)Oc1cccc2ccccc12 (stereo partly drawn) [Compound M] |  |  |  |  |  |  |  | 5 to 15 µM | 5 to 15 µM | 5 to 15 µM | 5 to 15 µM | 5 to 15 µM | 15 to 100 µM | 15 to 100 µM | 15 to 100 µM | Emax (RL; 72 h): 100%; Emax (NCI-H929; NCI-H929, 72 h): 99%; Emax (MOLT-4 [4]; MOLT-4, 72 h): 101%; Emax (K562 [5]; K562, 72 h): 100%; Emax (CCRFCEM; 72 h): 100%; Emax (HT29; HT-29, 72 h): 100%; Emax (MCF7; MCF7, 72 h): 100%; Emax (KG-1 [6]; KG-1, 72 h): 102%
CCCCCCOC(=O)[C@H](C)NP(=O)(OC[C@@H]1C[C@H](O)[C@H](n2cnc3c(N)nc(OC)nc32)O1)Oc1ccccc1 (stereo partly drawn) [Compound N, 2-O-methyl-3′-deoxyadenosine-5′-O-[phenyl(1-hexyloxy-L-alaninyl)] phosphate] |  |  |  |  |  |  |  | 15 to 100 µM | 15 to 100 µM | 15 to 100 µM | 15 to 100 µM | 15 to 100 µM | 15 to 100 µM | 15 to 100 µM | 15 to 100 µM | Emax (RL; 72 h): 88%; Emax (NCI-H929; NCI-H929, 72 h): 99%; Emax (MOLT-4 [4]; MOLT-4, 72 h): 97%; Emax (K562 [5]; K562, 72 h): 78%; Emax (CCRFCEM; 72 h): 93%; Emax (HT29; HT-29, 72 h): 69%; Emax (MCF7; MCF7, 72 h): 73%; Emax (KG-1 [6]; KG-1, 72 h): 96%
C[C@H](NP(=O)(Oc1ccccc1)O[C@@H]1C[C@@H](CO)O[C@H]1n1cnc2c(N)ncnc21)C(=O)OCc1ccccc1 (stereo partly drawn) [G, (2S)-benzyl 2-(((((2R,3R,5S)-2-(6-amino-9H-purin-9-yl)-5-(hydroxymethyl)tetrahydro-furan-3-yl)oxy)(phenoxy)phosphoryl)amino)propanoate] | 15 to 100 µM | 15 to 100 µM | 15 to 100 µM | 5 to 15 µM | 15 to 100 µM | 15 to 100 µM | 15 to 100 µM |  |  |  |  |  |  |  |  | 
C[C@H](NP(=O)(OC[C@@H]1C[C@@H](OP(=O)(N[C@@H](C)C(=O)OCc2ccccc2)Oc2ccccc2)[C@H](n2cnc3c(N)ncnc32)O1)Oc1ccccc1)C(=O)OCc1ccccc1 (stereo partly drawn) [H, Benzyl 2-(((((2S,4R,5R)-5-(6-amino-9H-purin-9-yl)-4-((((1-(benzyloxy)-1-oxopropan-2-yl)amino)(phenoxy)phosphoryl)oxy)tetrahydrofuran-2-yl)methoxy)(phenoxy)phosphoryl)-amino)propanoate] | 15 to 100 µM | 15 to 100 µM | 15 to 100 µM | 0.1 to 5 µM | 15 to 100 µM | 5 to 15 µM | 15 to 100 µM |  |  |  |  |  |  |  |  | 
COc1nc(N)c2ncn([C@@H]3O[C@H](COP(=O)(N[C@@H](C)C(=O)OCc4ccccc4)Oc4cccc5ccccc45)C[C@H]3O)c2n1 (stereo partly drawn) [K] |  |  |  |  |  |  |  | 15 to 100 µM | 5 to 15 µM | 15 to 100 µM | 15 to 100 µM | 5 to 15 µM | 15 to 100 µM | 5 to 15 µM | 15 to 100 µM | 
